Experimental data from PubChem BioAssay (NCI).
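Here, GI50 denotes the concentration required for 50% inhibition of growth. TGI marks complete inhibition of growth.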

Experiments:
Assay in all cases: inhibition of tumour cell growth, NCI panel, 384-well format
786-0 renal = tested on: 786-0 renal
A498 renal = tested on: A498 renal
A549 NSCLC = tested on: A549 NSCLC
ACHN renal = tested on: ACHN renal
BT-549 breast = tested on: BT-549 breast
CAKI-1 renal = tested on: CAKI-1 renal
CCRF-CEM leukemia = tested on: CCRF-CEM leukemia
DU-145 prostate = tested on: DU-145 prostate
EKVX NSCLC = tested on: EKVX NSCLC
HCC-2998 colon = tested on: HCC-2998 colon
HCT-116 colon = tested on: HCT-116 colon
HCT-15 colon = tested on: HCT-15 colon
HL-60(TB) leukemia = tested on: HL-60(TB) leukemia
HOP-62 NSCLC = tested on: HOP-62 NSCLC
HOP-92 NSCLC = tested on: HOP-92 NSCLC
HS 578T breast = tested on: HS 578T breast
HT29 colon = tested on: HT29 colon
IGROV1 ovarian = tested on: IGROV1 ovarian
KM12 colon = tested on: KM12 colon
LOX IMVI melanoma = tested on: LOX IMVI melanoma
M14 melanoma = tested on: M14 melanoma
MALME-3M melanoma = tested on: MALME-3M melanoma
MCF7 breast = tested on: MCF7 breast
MDA-MB-231 breast = tested on: MDA-MB-231 breast
MDA-MB-435 melanoma = tested on: MDA-MB-435 melanoma
MDA-MB-468 breast = tested on: MDA-MB-468 breast
NCI-H226 lung = tested on: NCI-H226 lung
NCI-H23 lung = tested on: NCI-H23 lung
NCI-H322M lung = tested on: NCI-H322M lung
NCI-H460 NSCLC = tested on: NCI-H460 NSCLC
NCI-H522 lung = tested on: NCI-H522 lung
OVCAR-3 ovarian = tested on: OVCAR-3 ovarian
OVCAR-4 ovarian = tested on: OVCAR-4 ovarian
OVCAR-5 ovarian = tested on: OVCAR-5 ovarian
PC-3 prostate = tested on: PC-3 prostate
RXF 393 renal = tested on: RXF 393 renal
SF-268 CNS = tested on: SF-268 CNS
SF-295 CNS = tested on: SF-295 CNS
SF-539 CNS = tested on: SF-539 CNS
SK-MEL-28 melanoma = tested on: SK-MEL-28 melanoma
SK-MEL-5 melanoma = tested on: SK-MEL-5 melanoma
SK-OV-3 ovarian = tested on: SK-OV-3 ovarian
SN12C renal = tested on: SN12C renal
SNB-19 CNS = tested on: SNB-19 CNS
SNB-75 CNS = tested on: SNB-75 CNS
SR leukemia = tested on: SR leukemia
SW-620 colon = tested on: SW-620 colon
T-47D breast = tested on: T-47D breast
TK-10 renal = tested on: TK-10 renal
U251 glioblastoma = tested on: U251 glioblastoma
UACC-257 melanoma = tested on: UACC-257 melanoma
UO-31 renal = tested on: UO-31 renal

Q: How did the GI50 (786-0 renal) turn out when O=C(Nc1cn[nH]c1-c1nc2ccc(CN3CCOCC3)cc2[nH]1)NC1CC1 was run?
A: Its GI50 is 261 nM.

Q: What about the TGI (786-0 renal) of the same molecule?
A: The TGI was 10200 nM.

Q: What about the GI50 (A498 renal) of the same molecule?
A: The GI50 was 289 nM.

Q: And the TGI (A498 renal)?
A: The TGI was 6650 nM.

Q: What about the GI50 (A549 NSCLC) of the same molecule?
A: Its GI50 is 800 nM.

Q: And the TGI (A549 NSCLC)?
A: Its TGI is > 100000 nM.

Q: What about the GI50 (ACHN renal) of the same molecule?
A: Its GI50 is 413 nM.

Q: What about the TGI (ACHN renal) of the same molecule?
A: Its TGI is > 100000 nM.

Q: And the GI50 (BT-549 breast)?
A: The GI50 was 58.7 nM.

Q: What about the TGI (BT-549 breast) of the same molecule?
A: The TGI was 386 nM.

Q: And the GI50 (CAKI-1 renal)?
A: Its GI50 is 71.8 nM.

Q: What about the TGI (CAKI-1 renal) of the same molecule?
A: Its TGI is > 100000 nM.

Q: And the TGI (CCRF-CEM leukemia)?
A: Its TGI is 28 nM.

Q: What about the GI50 (DU-145 prostate) of the same molecule?
A: The GI50 was 651 nM.

Q: What about the TGI (DU-145 prostate) of the same molecule?
A: The TGI was 70400 nM.

Q: And the GI50 (EKVX NSCLC)?
A: Its GI50 is 196 nM.

Q: What about the TGI (EKVX NSCLC) of the same molecule?
A: Its TGI is 4490 nM.

Q: What about the GI50 (HCC-2998 colon) of the same molecule?
A: Its GI50 is 1360 nM.

Q: And the TGI (HCC-2998 colon)?
A: The TGI was 2810 nM.

Q: What about the GI50 (HCT-116 colon) of the same molecule?
A: Its GI50 is 71 nM.

Q: And the TGI (HCT-116 colon)?
A: The TGI was > 100000 nM.

Q: And the GI50 (HCT-15 colon)?
A: Its GI50 is 1540 nM.

Q: And the TGI (HCT-15 colon)?
A: The TGI was 11600 nM.

Q: What about the GI50 (HL-60(TB) leukemia) of the same molecule?
A: Its GI50 is 13 nM.

Q: What about the TGI (HL-60(TB) leukemia) of the same molecule?
A: Its TGI is 28.1 nM.

Q: And the GI50 (HOP-62 NSCLC)?
A: The GI50 was 184 nM.

Q: What about the TGI (HOP-62 NSCLC) of the same molecule?
A: The TGI was 1390 nM.

Q: And the GI50 (HOP-92 NSCLC)?
A: The GI50 was 172 nM.

Q: What about the TGI (HOP-92 NSCLC) of the same molecule?
A: The TGI was 10800 nM.

Q: What about the GI50 (HS 578T breast) of the same molecule?
A: Its GI50 is 33.6 nM.

Q: What about the TGI (HS 578T breast) of the same molecule?
A: Its TGI is 73.5 nM.

Q: What about the GI50 (HT29 colon) of the same molecule?
A: The GI50 was 75.3 nM.

Q: What about the TGI (HT29 colon) of the same molecule?
A: The TGI was > 100000 nM.

Q: And the GI50 (IGROV1 ovarian)?
A: Its GI50 is 633 nM.

Q: What about the TGI (IGROV1 ovarian) of the same molecule?
A: The TGI was > 100000 nM.

Q: What about the GI50 (KM12 colon) of the same molecule?
A: Its GI50 is 1040 nM.

Q: And the TGI (KM12 colon)?
A: Its TGI is 3490 nM.

Q: And the GI50 (LOX IMVI melanoma)?
A: Its GI50 is 248 nM.

Q: What about the TGI (LOX IMVI melanoma) of the same molecule?
A: The TGI was 1120 nM.

Q: And the GI50 (M14 melanoma)?
A: The GI50 was 364 nM.

Q: What about the TGI (M14 melanoma) of the same molecule?
A: Its TGI is 2210 nM.

Q: What about the GI50 (MALME-3M melanoma) of the same molecule?
A: The GI50 was 1420 nM.

Q: What about the TGI (MALME-3M melanoma) of the same molecule?
A: The TGI was 3080 nM.

Q: What about the GI50 (MCF7 breast) of the same molecule?
A: Its GI50 is 345 nM.

Q: And the TGI (MCF7 breast)?
A: Its TGI is 7390 nM.

Q: What about the GI50 (MDA-MB-231 breast) of the same molecule?
A: The GI50 was 322 nM.

Q: And the TGI (MDA-MB-231 breast)?
A: Its TGI is 2540 nM.

Q: And the GI50 (MDA-MB-435 melanoma)?
A: The GI50 was 1470 nM.

Q: And the TGI (MDA-MB-435 melanoma)?
A: Its TGI is 3370 nM.

Q: What about the GI50 (MDA-MB-468 breast) of the same molecule?
A: The GI50 was 16.9 nM.

Q: What about the TGI (MDA-MB-468 breast) of the same molecule?
A: Its TGI is 36.7 nM.

Q: What about the GI50 (NCI-H226 lung) of the same molecule?
A: Its GI50 is 85.8 nM.

Q: What about the TGI (NCI-H226 lung) of the same molecule?
A: The TGI was 273 nM.

Q: What about the GI50 (NCI-H23 lung) of the same molecule?
A: The GI50 was 88.2 nM.

Q: And the TGI (NCI-H23 lung)?
A: Its TGI is 2030 nM.

Q: What about the GI50 (NCI-H322M lung) of the same molecule?
A: Its GI50 is 1290 nM.

Q: And the TGI (NCI-H322M lung)?
A: The TGI was 3480 nM.

Q: What about the GI50 (NCI-H460 NSCLC) of the same molecule?
A: The GI50 was 48.7 nM.

Q: What about the TGI (NCI-H460 NSCLC) of the same molecule?
A: The TGI was 1590 nM.

Q: And the GI50 (NCI-H522 lung)?
A: The GI50 was 237 nM.

Q: What about the TGI (NCI-H522 lung) of the same molecule?
A: The TGI was 835 nM.

Q: What about the GI50 (OVCAR-3 ovarian) of the same molecule?
A: Its GI50 is 156 nM.

Q: And the TGI (OVCAR-3 ovarian)?
A: The TGI was 382 nM.

Q: What about the GI50 (OVCAR-4 ovarian) of the same molecule?
A: The GI50 was 1120 nM.

Q: What about the TGI (OVCAR-4 ovarian) of the same molecule?
A: The TGI was 5390 nM.

Q: What about the GI50 (OVCAR-5 ovarian) of the same molecule?
A: The GI50 was 1810 nM.

Q: What about the TGI (OVCAR-5 ovarian) of the same molecule?
A: The TGI was > 100000 nM.

Q: And the GI50 (PC-3 prostate)?
A: Its GI50 is 299 nM.

Q: What about the TGI (PC-3 prostate) of the same molecule?
A: The TGI was 13900 nM.

Q: What about the GI50 (RXF 393 renal) of the same molecule?
A: The GI50 was 22.3 nM.

Q: And the TGI (RXF 393 renal)?
A: Its TGI is 61.2 nM.

Q: And the GI50 (SF-268 CNS)?
A: The GI50 was 103 nM.

Q: What about the TGI (SF-268 CNS) of the same molecule?
A: Its TGI is 436 nM.

Q: And the GI50 (SF-295 CNS)?
A: The GI50 was 187 nM.

Q: What about the TGI (SF-295 CNS) of the same molecule?
A: Its TGI is 1210 nM.

Q: What about the GI50 (SF-539 CNS) of the same molecule?
A: The GI50 was 168 nM.

Q: And the TGI (SF-539 CNS)?
A: Its TGI is 453 nM.

Q: What about the GI50 (SK-MEL-28 melanoma) of the same molecule?
A: The GI50 was 1350 nM.

Q: What about the TGI (SK-MEL-28 melanoma) of the same molecule?
A: Its TGI is 2910 nM.

Q: And the GI50 (SK-MEL-5 melanoma)?
A: Its GI50 is 1260 nM.

Q: And the TGI (SK-MEL-5 melanoma)?
A: Its TGI is 2670 nM.

Q: And the GI50 (SK-OV-3 ovarian)?
A: Its GI50 is 259 nM.

Q: What about the TGI (SK-OV-3 ovarian) of the same molecule?
A: Its TGI is 2280 nM.

Q: What about the GI50 (SN12C renal) of the same molecule?
A: The GI50 was 1030 nM.

Q: And the TGI (SN12C renal)?
A: Its TGI is 2420 nM.

Q: And the GI50 (SNB-19 CNS)?
A: The GI50 was 256 nM.

Q: What about the TGI (SNB-19 CNS) of the same molecule?
A: Its TGI is 1730 nM.

Q: What about the GI50 (SNB-75 CNS) of the same molecule?
A: The GI50 was 38.1 nM.

Q: And the TGI (SNB-75 CNS)?
A: Its TGI is 113 nM.

Q: What about the TGI (SR leukemia) of the same molecule?
A: The TGI was 18.7 nM.

Q: What about the GI50 (SW-620 colon) of the same molecule?
A: The GI50 was 36.3 nM.

Q: And the TGI (SW-620 colon)?
A: Its TGI is > 100000 nM.

Q: What about the GI50 (T-47D breast) of the same molecule?
A: Its GI50 is 2200 nM.

Q: What about the TGI (T-47D breast) of the same molecule?
A: Its TGI is 6040 nM.

Q: And the GI50 (TK-10 renal)?
A: Its GI50 is 210 nM.

Q: And the TGI (TK-10 renal)?
A: Its TGI is 706 nM.

Q: What about the GI50 (U251 glioblastoma) of the same molecule?
A: Its GI50 is 228 nM.

Q: What about the TGI (U251 glioblastoma) of the same molecule?
A: The TGI was 1300 nM.

Q: And the GI50 (UACC-257 melanoma)?
A: Its GI50 is 2090 nM.

Q: And the TGI (UACC-257 melanoma)?
A: Its TGI is 4190 nM.

Q: What about the GI50 (UO-31 renal) of the same molecule?
A: Its GI50 is 111 nM.

Q: And the TGI (UO-31 renal)?
A: The TGI was 1210 nM.
